Measured values as given in patent US20070142478A1, “COMBINATION ANTIMICROBIAL COMPOSITION AND METHOD OF USE” (priority 2005, published 2007).
“Also recorded” adds a separate entry of the source.

What was measured:
[1] = tested on: Aspergillus; settings: 0.02%; cited from earlier work
[2] = tested on: Cytomegalovirus; assay: Viral Suspension Assay, Cytomegalovirus; format: cell-based; settings: 30 ppm and 99 ppm
Method: (§1) The Viral Suspension Assay was used to evaluate the antiviral properties of Alexidine against Adenovirus Type-4, Adenovirus Type-8 and Adenovirus Type-19 and Cytomegalovirus when exposed in suspension for 1, 2, 5, and 10 minutes. The presence of virus (infectivity) was determined by monitoring the virus specific cytopathic effect (CPE) on an appropriate indicator cell line, rabbit kidney. Results are reported as Percent (%) Reduction in virus titer as compared to the corresponding virus control titer (Table 1). The titer of the virus controls were 7.5 log10 following the one minute exposure time; 7.0 log10 following the two minute exposure time; and 7.75 log10 following both the five and ten minute exposure times.

[3] = tested on: Adenovirus Type-19; assay: Viral Suspension Assay, Adenovirus Type-19; format: cell-based
Method: as §1

[4] = tested on: Herpes simplex virus type 1; assay: Viral Suspension Assay, HSV-1; format: cell-based; settings: 30 ppm and 99 ppm
Method: as §1, with “Herpes simplex virus type 1” for “Adenovirus Type-4, Adenovirus Type-8 and Adenovirus Type-19 and Cytomegalovirus”

[5] = tested on: Adenovirus Type-8; assay: Viral Suspension Assay, Adenovirus Type-8; format: cell-based
Method: as §1

[6] = tested on: Adenovirus Type-4; assay: Viral Suspension Assay, Adenovirus Type-4; format: cell-based
Method: as §1

Compound | Effectiveness in experimental Aspergillus keratitis (in words) [1] | Effectiveness against Cytomegalovirus (in words) [2] | Percent Reduction (%) ([3]; Alexidine 30 ppm and 99 ppm, 1, 2, 5 and 10 minutes) | Effectiveness against Adenovirus Type-19 (in words) ([3]; particular strain tested) | Effectiveness against HSV-1 (in words) [4] | Effectiveness against Adenovirus Type-8 (in words) ([5]; 30 ppm and 99 ppm) | Percent Reduction (%) ([5]; Alexidine 30 ppm, 10 minutes) | Percent Reduction (%) ([5]; Alexidine 99 ppm, 5 minutes) | Percent Reduction (%) ([5]; Alexidine 99 ppm, 10 minutes) | Effectiveness against Adenovirus Type-4 (in words) ([6]; 30 ppm and 99 ppm) | Percent Reduction (%) ([6]; Alexidine 30 ppm, 1 minute) | Percent Reduction (%) ([6]; Alexidine 30 ppm, 10 minutes) | Percent Reduction (%) ([6]; Alexidine 99 ppm, 1 minute) | Percent Reduction (%) ([6]; Alexidine 99 ppm, 5 minutes) | Percent Reduction (%) ([6]; Alexidine 99 ppm, 10 minutes)
polyhexamethylene biguanide | moderately effective | – | – | – | – | – | – | – | – | – | – | – | – | – | –
CCCCC(CC)CNC(=N)NC(=N)NCCCCCCNC(=N)NC(=N)NCC(CC)CCCC (stereo not drawn) [Alexidine, 1,1′-hexamethylene-bis[5-(2-ethylhexyl)biguanide]] | – | somewhat effective | No reduction | did not appear to be effective | effective agents; also recorded: potent antimicrobial agent | somewhat effective | 90.0 | 90.0 | 90.0 | somewhat effective | 43.8 | 68.4 | 68.4 | 43.8 | 68.4
